Data taken from patent publication US11932655B1, “12-bromo-2,16-dioxapentacyclo[7.7.5.01,21.03,8.010,15]henicosa3(8),10,12,14-tetraene-7,20-dione as an antimicrobial compound” (KING FAISAL UNIVERSITY, priority 2023, dated 2024).

What was measured:
Assay in all cases: Antimicrobial activity, agar dilution, exposure-time test
Assay type in all cases: cell-based
Details in all cases: after 10, 20, 40 and 60 minutes at all dilutions 1:100 to 1:800
Escherichia coli = tested on: Escherichia coli
Protocol: (§1) The antibacterial properties of the synthesized compound of 12-bromo-2,16-dioxapentacyclo[7.7.5.0^1,21.0^3,8.0^10,15]henicosa3(8),10,12,14-tetraene-7,20-dione were studied by the method of agar dilution. Test solutions of each compound was prepared in concentration of 1% using dimethylformamide as a solvent. Then they were diluted in physiological solution to obtain the final experimental dilutions of 1:100, 1:200, 1:400, and 1:800. The effect of these substances were compared with furacillin in a controllable study. The testing microbes used were gram positive bacteria Staphylococcus aureus, gram negative bacteria Pseudomonas aeruginosa, Escherichia coli, and Candida albicans fungus. The experiments used for this survey were meat-pentonlu agar (EPA) for cultivation of bacteria and Saburo environment for fungi. Each experiment used 1 mL of test solution on each plate for 500 minutes. Two drops of emulsified with microbes feel were added. All experimental samples were taken from the agar after 10, 20, 40, 60 minutes in the environment on the basis of Patrk planted. Bacteria were cultivated at a temperature of 37° C. for 1 day and the mushroom was kept in a thermostat for […] at a temperature of 28° C. Then results were checked. Those of the control and the antimicrobial activity for the synthesized compounds are listed in Table 1 below, with furacillin serving as a reference.

Pseudomonas aeruginosa = tested on: Pseudomonas aeruginosa
Protocol: as §1

Staphylococcus aureus = tested on: Staphylococcus aureus
Protocol: as §1

Candida albicans = tested on: Candida albicans
Protocol: as §1

Measured: inhibition activity compared with Furacilin

O=C1CCCC2=C1C1c3cc(Br)ccc3OC3(CCCC(=O)C13)O2 (stereo not shown) [12-bromo-2,16-dioxapentacyclo[7.7.5.0^1,21.0^3,8.0^10,15]henicosa3(8),10,12,14-tetraene-7,20-dione]
higher inhibition activity: Escherichia coli | Pseudomonas aeruginosa | Staphylococcus aureus | Candida albicans
